# Reference: ChEMBL document CHEMBL4811216, “Chemotherapy for human schistosomiasis: how far have we come? What's new? Where do we go from here?” (RSC Med Chem, 2020)
# Experiments:
# [1] = Inhibition of C-terminal His6-tagged Schistosoma mansoni NACE expressed in Pichia pastoris using 1-N6-ethenonicotinamide adenine dinucleotide as substrate by fluorometric assay
# [2] = Inhibition of NACE in Schistosoma mansoni using 1-N6-ethenonicotinamide adenine dinucleotide as substrate incubated for 30 mins by fluorometric assay
# Schistosoma mansoni [3] = test: Antischistosomal activity against Schistosoma mansoni BH assessed as extensive tegumental alteration at 25 uM measured after 24 hrs by light microscopy relative to control; assay type: functional
# ATP-diphosphohydrolase 1 = biological target: T1, ATP-diphosphohydrolase 1 (Schistosoma mansoni, UniProt Q7YTA4); test: Inhibition of Schistosoma mansoni ATPDase1 preincubated for 30 mins followed by addition of ATP/ADP by spectrophotometric method
# T1 sequence (Q7YTA4 whole entry): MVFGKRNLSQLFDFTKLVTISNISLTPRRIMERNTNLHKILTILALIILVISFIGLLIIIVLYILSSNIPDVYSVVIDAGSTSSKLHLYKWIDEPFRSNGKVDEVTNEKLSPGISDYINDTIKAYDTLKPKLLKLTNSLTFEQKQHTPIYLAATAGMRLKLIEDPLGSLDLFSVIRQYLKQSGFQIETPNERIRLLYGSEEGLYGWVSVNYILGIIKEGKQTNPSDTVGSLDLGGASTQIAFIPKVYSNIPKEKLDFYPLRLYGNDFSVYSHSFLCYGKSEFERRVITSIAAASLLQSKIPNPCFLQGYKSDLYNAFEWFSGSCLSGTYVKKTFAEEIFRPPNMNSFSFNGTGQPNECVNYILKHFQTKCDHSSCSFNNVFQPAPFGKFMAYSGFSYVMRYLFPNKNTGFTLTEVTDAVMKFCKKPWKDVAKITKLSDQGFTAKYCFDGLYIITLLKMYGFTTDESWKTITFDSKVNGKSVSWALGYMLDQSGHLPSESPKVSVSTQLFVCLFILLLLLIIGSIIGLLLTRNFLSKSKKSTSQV
# [4] = biological target: T2, ATP-diphosphohydrolase 1 (Schistosoma mansoni) (UniProt Q7YTA4); test: Inhibition of Schistosoma mansoni ATPDase1 at 40 uM preincubated for 30 mins followed by addition of ATP/ADP by spectrophotometric method relative to control
# T2 sequence (whole entry): T1 sequence (Q7YTA4 whole entry)
# Schistosoma mansoni [5] = test: Antischistosomal activity against Schistosoma mansoni BH assessed as reduction in motor activity at 25 uM measured after 24 hrs by light microscopy relative to control; assay type: functional; parameters: scale not given: the % may be the effect or the level left
# Schistosoma mansoni [6] = test: Antischistosomal activity against Schistosoma mansoni by confocal laser scanning microscopy; assay type: functional, organism-based
# Schistosoma mansoni [7] = test: Antischistosomal activity against Schistosoma mansoni schistosomula incubated for 24 hrs by celltiter-glo reagent based assay; assay type: functional, organism-based
# Schistosoma mansoni [8] = test: Antischistosomal activity against adult Schistosoma mansoni Puerto-Rican incubated for 7 days by stereomicroscopy; assay type: functional; details: time 7 day
# Schistosoma mansoni [9] = test: Antischistosomal activity against adult Schistosoma mansoni assessed as worm death at 12.5 uM incubated for 120 hrs relative to control; assay type: functional
# [10] = biological target: T3, Thioredoxin glutathione reductase (Schistosoma mansoni, UniProt Q962Y6); test: Inhibition of Schistosoma mansoni thioredoxin glutathione reductase incubated for 30 mins by DTNB assay
# T3 sequence (Q962Y6 whole entry): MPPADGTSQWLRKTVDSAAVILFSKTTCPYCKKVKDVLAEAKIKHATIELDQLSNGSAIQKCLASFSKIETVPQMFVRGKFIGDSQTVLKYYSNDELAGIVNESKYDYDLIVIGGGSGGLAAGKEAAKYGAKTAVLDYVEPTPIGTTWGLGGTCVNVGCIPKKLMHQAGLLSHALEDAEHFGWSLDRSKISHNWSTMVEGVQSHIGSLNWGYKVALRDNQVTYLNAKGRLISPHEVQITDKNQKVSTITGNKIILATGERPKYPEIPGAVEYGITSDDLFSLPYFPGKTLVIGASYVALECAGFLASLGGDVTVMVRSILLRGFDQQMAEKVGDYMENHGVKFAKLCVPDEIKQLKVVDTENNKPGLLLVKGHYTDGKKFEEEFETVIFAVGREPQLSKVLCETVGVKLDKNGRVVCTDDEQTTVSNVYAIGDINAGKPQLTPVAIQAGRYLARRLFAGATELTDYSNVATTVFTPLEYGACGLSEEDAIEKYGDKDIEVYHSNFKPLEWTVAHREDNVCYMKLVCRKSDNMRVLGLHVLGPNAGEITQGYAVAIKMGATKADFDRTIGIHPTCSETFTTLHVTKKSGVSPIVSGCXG
# Schistosoma mansoni [11] = test: Antischistosomal activity against Schistosoma mansoni Schistosomula assessed as worm death at 12.5 uM incubated for 120 hrs relative to control; assay type: functional
# Schistosoma japonicum [12] = test: Antischistosomal activity against adult Schistosoma japonicum assessed as worm death at 12.5 uM incubated for 120 hrs relative to control; assay type: functional
# Schistosoma mansoni [13] = test: Antischistosomal activity against juvenile Schistosoma mansoni assessed as worm death at 12.5 uM incubated for 120 hrs relative to control; assay type: functional
# Schistosoma mansoni [14] = test: Antischistosomal activity against adult Schistosoma mansoni assessed as worm death at 10 uM incubated for 120 hrs relative to control; assay type: functional
# Schistosoma haematobium [15] = test: Antischistosomal activity against Schistosoma haematobium assessed as worm death at 10 uM incubated for 144 hrs relative to control; assay type: functional
# Schistosoma mansoni [16] = test: Antischistosomal activity against Schistosoma mansoni Schistosomula assessed as worm death at 10 uM incubated for 24 hrs relative to control; assay type: functional
# Schistosoma mansoni [17] = test: Antischistosomal activity against juvenile Schistosoma mansoni assessed as worm death at 10 uM incubated for 120 hrs relative to control; assay type: functional
# Schistosoma japonicum [18] = test: Antischistosomal activity against Schistosoma japonicum assessed as worm death at 10 uM incubated for 120 hrs relative to control; assay type: functional; details: for mortality at 10 µM: Schistosoma japonicum
# Schistosoma mansoni [19] = test: Antischistosomal activity against Schistosoma mansoni assessed as worm death at 50 uM in presence of red blood cells relative to control; assay type: functional
# Schistosoma mansoni [20] = test: Antischistosomal activity against Schistosoma mansoni assessed as worm death at 10 uM incubated for 72 hrs relative to control; assay type: functional
# Schistosoma mansoni [21] = test: Antischistosomal activity against Schistosoma mansoni assessed as worm death at 10 uM incubated for 48 hrs relative to control; assay type: functional
# Schistosoma haematobium [22] = test: Antischistosomal activity against Schistosoma haematobium assessed as worm death at 10 uM incubated for 96 hrs relative to control; assay type: functional
# Schistosoma mansoni [23] = test: Antischistosomal activity against adult Schistosoma mansoni assessed as worm death at 10 uM incubated for 144 hrs relative to control; assay type: functional
# Schistosoma haematobium [24] = test: Antischistosomal activity against Schistosoma haematobium assessed as worm death at 10 uM incubated for 120 hrs relative to control; assay type: functional
# Schistosoma mansoni [25] = test: Antischistosomal activity against juvenile Schistosoma mansoni assessed as worm death at 10 uM incubated for 72 hrs relative to control; assay type: functional
# Schistosoma mansoni [26] = test: Antischistosomal activity against Schistosoma mansoni BH assessed as worm death at 50 uM measured after 72 to 120 hrs by inverted optical microscopic method relative to control; assay type: functional; details: time 72-120 hrs
# Schistosoma mansoni [27] = test: Antischistosomal activity against juvenile Schistosoma mansoni assessed as worm death at 10 uM incubated for 24 hrs relative to control; assay type: functional
compound,measurement,setting,value
O=C(Nc1nc(=O)c2ccccc2s1)c1ccco1,IC50,[1],2200 nM
same,IC50,[2],20000 nM
COc1cc(O)cc(O)c1C(=O)/C=C/c1ccccc1 [CARDAMOMIN],Activity,Schistosoma mansoni [3],100%
same,IC50,ATP-diphosphohydrolase 1,23500 nM
same,inhibition,[4],82%
same,Activity,Schistosoma mansoni [5],100%
COc1cc(/C=N/NC(=O)c2ccc(C(C)(C)C)cc2)ccc1O,IC50,Schistosoma mansoni [6],47900 nM
COC1=C(Cc2ccc(OC)cc2)C(=O)C2=C(NCCS2(=O)=O)C1=O,IC50,Schistosoma mansoni [7],13900 nM
same,Activity,Schistosoma mansoni [8],100%
CCOC(=O)C(C(=O)OCC)C1=C(Br)C2=NOC3c4ccccc4C(=O)C(=C1)C23 (stereo not given),mortality at 12.5 µM,Schistosoma mansoni [9],28%
same,IC50,[10],140 nM
same,mortality at 12.5 µM,Schistosoma mansoni [11],96%
same,mortality at 12.5 µM,Schistosoma japonicum [12],100%
same,mortality at 12.5 µM,Schistosoma mansoni [13],100%
COC(=O)CS(=O)(=O)c1nnc(C(Cc2ccccc2)NC(=O)OC(C)(C)C)o1 (stereo not given),IC50,[10],330 nM
same,mortality at 10 µM,Schistosoma mansoni [14],62%
same,mortality at 10 µM,Schistosoma haematobium [15],67%
same,mortality at 10 µM,Schistosoma mansoni [16],99%
same,mortality at 10 µM,Schistosoma mansoni [17],39%
same,mortality at 10 µM,Schistosoma japonicum [18],65%
CC1=C(Cc2ccc(C(F)(F)F)cc2)C(=O)c2cc(C)cnc2C1=O,Activity,Schistosoma mansoni [19],100%
O=c1c(Cl)c(-n2cc(CO)nn2)cnn1-c1ccccc1,IC50,[10],2840 nM
same,Activity,Schistosoma mansoni [20],100%
same,Activity,Schistosoma mansoni [21],100%
same,mortality at 10 µM,Schistosoma mansoni [16],100%
same,Activity,Schistosoma haematobium [22],100%
same,Activity,Schistosoma japonicum [18],70%
O=[N+]([O-])c1ccc2c(c1)S(=O)(=O)C=C2,mortality at 10 µM,Schistosoma mansoni [23],76%
same,mortality at 10 µM,Schistosoma haematobium [24],85%
same,IC50,[10],2010 nM
same,mortality at 10 µM,Schistosoma mansoni [25],100%
same,mortality at 10 µM,Schistosoma mansoni [16],100%
same,mortality at 10 µM,Schistosoma japonicum [18],69%
O=C1CS/C(=N\N=C/c2cccc3c2OCO3)N1c1ccc(Br)cc1,Activity,Schistosoma mansoni [26],83.3%
CCN(c1ccccc1)S(=O)(=O)c1ccc(NC(=O)c2nc(S(C)(=O)=O)ncc2Cl)cc1,mortality at 10 µM,Schistosoma haematobium [24],94%
same,IC50,[10],210 nM
same,mortality at 10 µM,Schistosoma mansoni [14],78%
same,mortality at 10 µM,Schistosoma mansoni [27],100%
same,mortality at 10 µM,Schistosoma mansoni [16],100%
same,mortality at 10 µM,Schistosoma japonicum [18],50%
